According to patent publication US7456161B2 (Epigenesis Pharmaceuticals, LLC, priority 2001, dated 2008):
“Also recorded” adds a separate entry of the source.

Assays:
HT-29 SF cells [1] = assay: Cell cycle distribution by flow cytometry (propidium iodide) and reversal of the DHEA effect; assay type: cell-based, human; conditions: for cell morphology: HT-29 SF cells exposed to DHEA, data not shown
Intracellular Adenosine = assay: In vivo effect on adenosine levels in various rat tissues (HPLC, spectrofluorometric detection)
Description: Folinic acid (50 mg/kg) was administered intraperitoneally once daily for fourteen days. […] Hearts were removed from animals and flash frozen in liquid nitrogen with 10 seconds of death. Liver and lungs were removed en bloc and flash frozen within 30 seconds of death. Brain tissue was subsequently dissected.

HT-29 SF cells [2] = assay: DHEA effect on cell growth (cell number, Coulter counter) and its reversal by supplements; assay type: cell-based, human; conditions: 12.5-200 μM, 24-72 hours

C[C@@](O)(CCO)CC(=O)O [MVA, mevalonic acid, reference compound]
prevention of DHEA-induced S phase depletion (HT-29 SF cells [1]; 25 FM DHEA, 72 hours): not after 72 hours | cell morphology (HT-29 SF cells [1]): prevented only by the addition of MVA

C[C@]12CC[C@H](O)CC1=CC[C@@H]1[C@@H]2CC[C@]2(C)C(=O)CC[C@@H]12 [DHEA, (3β)-3-hydroxyandrost-5-en-17-one]
effect on tissue adenosine levels (in words) (Intracellular Adenosine; rat, in vivo): multi-organ depletion of adenosine | cell cycle distribution (HT-29 SF cells [1]; 200 μM DHEA, after 24 hours): increase in the percentage of cells in G1 and a decreased proportion of cells in S phase | effect on cell cycle (G1, S phase) with time of exposure (in words) (HT-29 SF cells [1]; 25-200 μM DHEA, 24-72 hours): G1 block in HT-29 SF cells in a time-and dose-dependent manner; also recorded: progressively reduced the proportion of cells in S phase | cell morphology (HT-29 SF cells [1]): acquiring a rounded shape | inhibition of growth of HT-29 SF cells (in words) (HT-29 SF cells [2]): time- and dose-dependent inhibition of growth

C[C@]12CCC(=O)C=C1CC[C@@H]1[C@@H]2CC[C@@]2(C)[C@H]1CC[C@]2(C)O [Methyltestosterone, methyltestosterone]
effect on tissue adenosine levels (in words) (Intracellular Adenosine; rats, daily for two weeks): multi-organ depletion of adenosine

Nc1nc(=O)c2c([nH]1)NCC(CNc1ccc(C(=O)N[C@@H](CCC(=O)O)C(=O)O)cc1)N2C=O (mixture of isomers) [Folinic Acid (F.A.), Folinic acid]
effect on tissue adenosine levels (in words) (Intracellular Adenosine; rats, daily for two weeks, listed as Folinic acid): increase in adenosine levels for all organs studied | effect on tissue adenosine levels (in words) (Intracellular Adenosine; rats, daily for two weeks, listed as folinic acid): completely abrogated steroid-mediated adenosine depletion
